Experimental data reported in US20090186767A1, “Use of surfactants for mitigating damage to plants from pests” (Cleareso, LLC, priority 2008, published 2009).
Entries after “also recorded” stand apart in the source; their conditions may differ.

Key:
[1] = Solubility of test preparations in water (Example 1); format: physicochemical; details: concentration stated in the value
[2] = system: larvae of the root weevil, Diaprepes abbreviatus; experiment: Immersion of root weevil larvae in test solutions (Example 1); format: in vivo; details: for Judgement of toxicity to larvae: 0.1 to 5.0% treatments, test terminated at 24 hours; for Mortality of larvae with individual compounds and formulations: five larvae
Experimental: The criterion for toxicity with these larvae is the lack of nipping behavior and its consequent black residue from blood loss and the lack of spontaneous movement.
Experimental Design. Larvae and pupae were received from the Florida Dept. of Agriculture's rearing program in Gainesville, Fla. Larvae were shipped as 50-day larvae (larvae that will pupate in about 10 days). Both larvae and pupae were held at 27° C. in 12 hour cycles of light and dark in their containers as separate individuals until experimentation began.
In the testing, five larvae or pupae were removed from their rearing cups and placed in a 150 ml glass beaker. In testing the Soy Technologies Manufacturer's Base (SMTB), a 5% solution was mixed in either water or carbonated water by adding 10 ml of SMTB to a 250 ml beaker and then adding water or carbonated water to the 200 ml mark. The solutions were then immediately added to the beaker with the larvae or pupae to cover them. Controls with water or carbonated water alone were also included. There was a single tray of five larvae for each treatment at each time period and a five larvae control for each time period. Larvae were removed and placed on plastic weighing trays after 5, 10, 15, 20, 25, and 30 minutes. At the end of 30 minutes all organisms were assessed for mortality. Trays with larvae were left on the bench tip for 24 hours and then another mortality assessment was made.
Concentration Series. With the results from the time series above, larvae were held in different concentrations of STMB for 30 minutes. After 30 minutes, solutions were poured off and the trays wiped dry. Assessments were made at 24 or 48 hours with a few assessments at 72 hours dependent on effects. Treatments were: water or carbonated water as controls, and 0.1, 0.5, 1.0, 2.0, 3.0, 4.0 and 5.0% concentrations in either distilled water or carbonated water. Five larvae were used for each control and treatment. Pupae were not used in this assessment.

[3] = system: tomato root galling by M. javanica; details: in vivo; cited from earlier work
[4] = system: second stage juveniles of Meloidognye hapla; details: cited from earlier work; for Toxicity to nematodes: in vivo; for Toxicity to second stage juveniles: 24 hours at a concentration of 50 ppm
[5] = concentration 0.1 percent, 24 hours
[6] = concentration 1.0 percent, 24 hours
[7] = concentration 3.0 percent, 24 hours
[8] = concentration 5.0 percent, 24 hours
[9] = concentration 0.1 percent, 48 hours
[10] = concentration 0.1 percent, 72 hours
[11] = concentration 1.0 percent, 48 hours
[12] = concentration 1.0 percent, 72 hours
[13] = concentration 3.0 percent, 48 hours
[14] = concentration 3.0 percent, 72 hours
[15] = concentration 5.0 percent, 48 hours
[16] = concentration 5.0 percent, 72 hours

## COC(=O)CCC(=O)OC [106-65-0, butanedioic acid, dimethyl ester]
[1]; listed as Dimethyl succinate
  Solubility of the preparation: The 3% and 5% concentrations were not soluble; also recorded: the 1.0% appears to be just soluble; also recorded: The 0.1% was soluble
[2]
  Judgement of toxicity to larvae: judged to be non-toxic
[2]; [5]
  Mortality of larvae with individual compounds and formulations: 2
[2]; [6]
  Mortality of larvae with individual compounds and formulations: 2
[2]; [7]
  Mortality of larvae with individual compounds and formulations: 1
[2]; [8]
  Mortality of larvae with individual compounds and formulations: 1

## COC(=O)CCCCC(=O)OC [627-93-0, Dimethyl hexanedioate]
[1]; listed as Dimethyladipate
  Solubility of the preparation: Preparations of 1.0, 3.0, and 5.0% concentration were not completely soluble; also recorded: The 0.1% preparation was soluble
[2]
  Judgement of toxicity to larvae: judged non-toxic
[2]; [5]
  Mortality of larvae with individual compounds and formulations: 2
[2]; [6]
  Mortality of larvae with individual compounds and formulations: 1
[2]; [7]
  Mortality of larvae with individual compounds and formulations: 2
[2]; [8]
  Mortality of larvae with individual compounds and formulations: 3

## COC(=O)CCCC(=O)OC [1119-40-0, pentanedioic acid, dimethyl ester]
[2]; [9]
  Mortality of larvae with individual compounds and formulations: 3
[2]; [10]
  Mortality of larvae with individual compounds and formulations: 3
[2]; [11]
  Mortality of larvae with individual compounds and formulations: 1
[2]; [12]
  Mortality of larvae with individual compounds and formulations: 2
[2]; [13]
  Mortality of larvae with individual compounds and formulations: 0
[2]; [14]
  Mortality of larvae with individual compounds and formulations: 0
[2]; [15]
  Mortality of larvae with individual compounds and formulations: 1
[2]; [16]
  Mortality of larvae with individual compounds and formulations: 2

## CCCCCCCCC(=O)OC [Methyl perlargonate]
[3]
  Concentration producing reduced galling of plants: 0.8 microliters/liter

## CCCCCCCC/C=C\CCCCCCCC(=O)O [Oleic acid]
[4]
  Toxicity to nematodes: relatively nontoxic

## CCCCCCCCCC(=O)O [decanoic acid]
[4]
  Toxicity to second stage juveniles: killed all second stage juveniles

## CCCCCCCC/C=C\CCCCCCCC(=O)[O-].[K+] [potassium oleate]
[4]
  Toxicity to nematodes: relatively nontoxic

## CCCCCCCCCCC(=O)O [undecanoic acid]
[4]
  Toxicity to second stage juveniles: killed all second stage juveniles

## Polyoxyethylene 10 tridecylether [24938-91-8]
[2]; [5]
  Mortality of larvae with individual compounds and formulations: 0
[2]; [9]
  Mortality of larvae with individual compounds and formulations: 0
[2]; [10]
  Mortality of larvae with individual compounds and formulations: 0
[2]; [6]
  Mortality of larvae with individual compounds and formulations: 2
[2]; [11]
  Mortality of larvae with individual compounds and formulations: 2
[2]; [12]
  Mortality of larvae with individual compounds and formulations: 2
[2]; [7]
  Mortality of larvae with individual compounds and formulations: 0
[2]; [13]
  Mortality of larvae with individual compounds and formulations: 0
[2]; [14]
  Mortality of larvae with individual compounds and formulations: 0
[2]; [8]
  Mortality of larvae with individual compounds and formulations: 0
[2]; [15]
  Mortality of larvae with individual compounds and formulations: 3
[2]; [16]
  Mortality of larvae with individual compounds and formulations: 3

## glycol pelargonate
[3]
  Concentration producing reduced galling of plants: 6.4 microliters/liter
